In one experiment the target is Pim1 kinase (Homo sapiens, UniProt P11309). The experiment can be described thus: Pim1 ATP depletion assay.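 Further: Luciferase-luciferin luminescence readout of residual ATP after PIM1 transfers phosphate to a peptide substrate, 40 µM ATP added, reaction run to roughly half ATP consumption.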 The experiment is classed as biochemical.
A further experiment has as its target Pim2 kinase (Homo sapiens, UniProt Q9P1W9). Description: Pim2 ATP depletion assay.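 Further: Luciferase-based luminescent readout of ATP remaining after PIM2 phosphorylates a BAD peptide, final 5 nM enzyme, 4 µM ATP, 10 µM peptide, 2.5% DMSO, run to roughly half ATP consumption.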 Type of experiment: biochemical. The settings on record: read-out: IC50 (μM) PIM2.
A further experiment deals with Pim3 kinase (Homo sapiens, UniProt Q86V86). Description: Pim3 ATP depletion assay. The experiment is classed as biochemical. The settings on record: read-out: IC50 (μM) PIM3.
For experiment [1], the target named is T1, human full length PKCE enzyme (Homo sapiens, UniProt Q02156).
T1 construct: human full length PKCE enzyme purchased from InVitrogen; purchased InVitrogen
T1 sequence (Q02156 1-737): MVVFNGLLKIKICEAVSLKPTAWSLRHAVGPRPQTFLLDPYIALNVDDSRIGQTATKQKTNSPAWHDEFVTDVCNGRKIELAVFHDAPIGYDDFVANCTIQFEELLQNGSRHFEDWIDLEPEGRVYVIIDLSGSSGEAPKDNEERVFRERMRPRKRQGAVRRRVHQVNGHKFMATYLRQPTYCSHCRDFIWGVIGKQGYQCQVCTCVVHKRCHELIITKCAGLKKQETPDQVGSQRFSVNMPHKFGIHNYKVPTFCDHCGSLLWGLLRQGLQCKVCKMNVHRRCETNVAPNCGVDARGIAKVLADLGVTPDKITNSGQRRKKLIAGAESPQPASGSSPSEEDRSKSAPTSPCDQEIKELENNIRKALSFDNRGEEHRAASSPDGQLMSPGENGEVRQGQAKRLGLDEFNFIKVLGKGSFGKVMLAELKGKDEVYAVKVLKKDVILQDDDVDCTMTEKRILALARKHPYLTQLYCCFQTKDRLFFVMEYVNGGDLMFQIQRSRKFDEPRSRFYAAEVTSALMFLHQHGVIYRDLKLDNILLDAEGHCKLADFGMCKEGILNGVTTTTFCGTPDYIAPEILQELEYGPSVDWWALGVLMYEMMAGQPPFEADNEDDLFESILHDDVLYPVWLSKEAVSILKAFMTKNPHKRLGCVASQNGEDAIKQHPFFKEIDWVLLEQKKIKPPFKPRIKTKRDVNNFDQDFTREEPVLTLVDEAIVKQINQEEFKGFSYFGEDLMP
The experiment can be described thus: In vitro PKCE assay. Type of experiment: biochemical. The settings on record: 10 nM enzyme, 40 uM peptide substrate, 20 uM ATP, KinaseGlo Plus readout; read-out: PKCε IC50. Background: Kinase-Glo reads ATP consumption through a luciferase reaction.

Another experiment addresses KDR kinase (Homo sapiens, UniProt P35968). The experiment can be described thus: KDR AlphaScreen assay. Conditions: KDR IC50 (μM).
The mark [2] stands for this setting: Pim1 ATP depletion assay, read-out: IC50 (μM) PIM1.

“And” between values parts separate entries of the source, which are not always exact repeats. Equal entries are not always repeated. Where two headings read alike, the source gives them in different places. A value given as a limit tells only on which side of the number the result lay.

Sequence of Pim2 kinase (Q9P1W9 whole entry): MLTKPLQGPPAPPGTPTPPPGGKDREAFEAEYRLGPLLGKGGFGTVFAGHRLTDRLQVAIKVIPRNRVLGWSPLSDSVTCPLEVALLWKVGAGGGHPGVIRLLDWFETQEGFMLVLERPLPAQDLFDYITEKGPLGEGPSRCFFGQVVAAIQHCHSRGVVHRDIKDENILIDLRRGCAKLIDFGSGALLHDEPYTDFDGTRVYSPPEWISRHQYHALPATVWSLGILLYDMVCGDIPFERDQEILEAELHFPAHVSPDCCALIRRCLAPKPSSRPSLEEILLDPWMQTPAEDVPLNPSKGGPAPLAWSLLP
Sequence of KDR kinase (P35968 20-1356): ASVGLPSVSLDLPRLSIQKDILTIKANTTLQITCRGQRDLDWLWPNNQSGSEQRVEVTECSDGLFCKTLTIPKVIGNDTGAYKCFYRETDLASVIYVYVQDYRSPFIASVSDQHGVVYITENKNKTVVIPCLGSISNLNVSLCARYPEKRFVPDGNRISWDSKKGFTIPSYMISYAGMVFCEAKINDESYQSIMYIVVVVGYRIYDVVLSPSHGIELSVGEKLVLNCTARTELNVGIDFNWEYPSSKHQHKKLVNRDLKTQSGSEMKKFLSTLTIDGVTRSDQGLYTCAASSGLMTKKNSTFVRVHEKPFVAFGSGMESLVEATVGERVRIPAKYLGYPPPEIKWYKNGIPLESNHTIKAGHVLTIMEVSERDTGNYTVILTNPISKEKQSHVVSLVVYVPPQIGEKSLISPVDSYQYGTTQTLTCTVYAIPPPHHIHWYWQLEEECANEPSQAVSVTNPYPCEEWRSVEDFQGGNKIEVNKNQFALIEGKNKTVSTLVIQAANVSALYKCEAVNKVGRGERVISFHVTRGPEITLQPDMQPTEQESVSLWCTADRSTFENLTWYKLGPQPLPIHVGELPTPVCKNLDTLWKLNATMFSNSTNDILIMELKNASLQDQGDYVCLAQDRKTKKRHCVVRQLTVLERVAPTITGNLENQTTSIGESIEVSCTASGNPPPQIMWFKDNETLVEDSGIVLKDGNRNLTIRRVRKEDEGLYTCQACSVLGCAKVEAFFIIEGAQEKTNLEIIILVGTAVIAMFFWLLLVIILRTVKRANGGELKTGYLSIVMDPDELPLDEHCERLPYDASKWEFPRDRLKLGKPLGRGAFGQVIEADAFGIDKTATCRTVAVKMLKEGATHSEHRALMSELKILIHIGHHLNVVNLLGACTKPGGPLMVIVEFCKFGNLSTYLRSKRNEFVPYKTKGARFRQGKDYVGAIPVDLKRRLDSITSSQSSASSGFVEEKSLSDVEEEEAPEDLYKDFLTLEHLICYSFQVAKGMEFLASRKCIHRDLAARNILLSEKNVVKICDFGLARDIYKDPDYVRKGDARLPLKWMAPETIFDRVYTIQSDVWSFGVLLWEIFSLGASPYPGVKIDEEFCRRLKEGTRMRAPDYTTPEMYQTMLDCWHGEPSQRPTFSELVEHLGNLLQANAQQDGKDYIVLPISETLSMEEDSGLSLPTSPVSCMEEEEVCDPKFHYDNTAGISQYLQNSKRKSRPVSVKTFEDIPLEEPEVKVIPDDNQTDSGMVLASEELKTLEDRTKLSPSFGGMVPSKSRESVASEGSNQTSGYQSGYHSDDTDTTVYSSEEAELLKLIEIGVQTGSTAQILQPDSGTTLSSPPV
Sequence of Pim1 kinase (P11309 whole entry): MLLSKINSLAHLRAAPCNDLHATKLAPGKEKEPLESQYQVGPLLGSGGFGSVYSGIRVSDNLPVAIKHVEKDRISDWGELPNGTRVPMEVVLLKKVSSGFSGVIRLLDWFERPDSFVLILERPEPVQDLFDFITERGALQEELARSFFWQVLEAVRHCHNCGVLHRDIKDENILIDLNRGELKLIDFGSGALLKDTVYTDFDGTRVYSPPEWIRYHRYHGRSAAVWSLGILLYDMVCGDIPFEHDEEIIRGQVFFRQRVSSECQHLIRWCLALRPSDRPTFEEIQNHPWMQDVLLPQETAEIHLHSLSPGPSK

By IC50 is commonly meant the concentration that gives 50% inhibition. For the molecule `NCC1CCCN(c2cnc(=O)[nH]c2NC(=O)c2nccnc2N)C1` (centres unmarked) [Example 135, 3-amino-N-{5-[3-(amino-methyl)piperidin-1-yl]-2-oxo-2,3-dihydropyrimidin-4-yl}-pyrazine-2-carboxamide], the half-inhibitory concentration (IC50) on Pim1 kinase (setting [2]) is < 1 µM; on Pim2 kinase it was < 1 µM; at Pim3 kinase, < 1 µM; in experiment [1] it was < 1000 nM; against KDR kinase it was 1 to 10 µM.
Take `NCC(=O)N1CCN(c2ccncc2NC(=O)c2nc(Cl)c(N)nc2N)CC1` [Example 186, 3,5-diamino-N-{4-[4-(amino-acetyl)piperazin-1-yl]pyridin-3-yl}-6-chloropyrazine-2-carboxamide]: the IC50 on Pim1 kinase (setting [2]) was < 1 µM; at Pim2 kinase, < 1 µM; at Pim3 kinase, < 1 µM; in experiment [1] it was 1000 to 10000 nM; against KDR kinase it was 1 to 10 µM.
With `NCCC(=O)N1CCN(c2ccncc2NC(=O)c2nccnc2N)CC1` [Example 188, 3-amino-N-{4-[4-(3-aminopropanoyl)piperazin-1-yl]pyridin-3-yl}pyrazine-2-carboxamide], the IC50 on Pim1 kinase was < 1 µM; at Pim2 kinase, 1 to 10 µM; at Pim3 kinase it was < 1 µM; in experiment [1] it was < 1000 nM; against KDR kinase it was 1 to 10 µM.
On to `Nc1nccnc1C(=O)Nc1cccnc1N1CCCC(N)C1` (centres unmarked) [Example 196, 3-amino-N-[2-(3-aminopiperidin-1-yl)pyridin-3-yl]pyrazine-2-carboxamide], for which the IC50 at Pim1 kinase (setting [2]) is 1 to 10 µM; on Pim2 kinase, 10 to 25 µM; at Pim3 kinase, 1 to 10 µM; in experiment [1], 1000 to 10000 nM; at KDR kinase, > 25 µM.
Regarding `Nc1nccnc1C(=O)Nc1cnccc1N1CCCNCC1` [Example 199, 3-amino-N-[4-(1,4-diazepan-1-yl)pyridin-3-yl]pyrazine-2-carboxamide], the IC50 on Pim1 kinase (setting [2]) is 1 to 10 µM; on Pim2 kinase, > 25 µM; on Pim3 kinase it was > 25 µM and 10 to 25 µM; in experiment [1], 1000 to 10000 nM; on KDR kinase, 1 to 10 µM.
As for `Nc1ncc(Br)nc1C(=O)Nc1ccccc1N1CCCC(N)C1` (centres unmarked) [Example 204, 3-amino-N-[2-(3-aminopiperidin-1-yl)phenyl]-6-bromopyrazine-2-carboxamide], the IC50 was < 1 µM at Pim1 kinase (setting [2]); < 1 µM on Pim2 kinase; < 1 µM at Pim3 kinase; < 1000 nM in experiment [1]; 1 to 10 µM against KDR kinase.
Take `Nc1ncc(Br)nc1C(=O)Nc1ccccc1N1CCNCC1` [Example 206, 3-amino-6-bromo-N-(2-piperazin-1-ylphenyl)pyrazine-2-carboxamide]: the IC50 was < 1 µM at Pim1 kinase (setting [2]); 1 to 10 µM at Pim2 kinase; < 1 µM on Pim3 kinase; < 1000 nM in experiment [1]; 1 to 10 µM against KDR kinase.
Take `COc1ccc(N2CCC(N)CC2)c(NC(=O)c2nc(Br)cnc2N)c1` [Example 211, 3-amino-N-[2-(4-aminopiperidin-1-yl)-5-methoxyphenyl]-6-bromopyrazine-2-carboxamide]: the IC50 was < 1 µM at Pim1 kinase (setting [2]); < 1 µM at Pim2 kinase; < 1 µM at Pim3 kinase; < 1000 nM in experiment [1]; 1 to 10 µM against KDR kinase.
In the case of `COc1ccc(N2CCCC(N)C2)c(NC(=O)c2nc(Br)cnc2N)c1` (centres unmarked) [Example 212, 3-amino-N-[2-(3-aminopiperidin-1-yl)-5-methoxyphenyl]-6-bromopyrazine-2-carboxamide], the half-maximal inhibitory concentration (IC50) was < 1 µM on Pim1 kinase (setting [2]); < 1 µM at Pim2 kinase; < 1 µM at Pim3 kinase; < 1000 nM in experiment [1]; 10 to 25 µM at KDR kinase.
Take `Nc1nccnc1C(=O)Nc1cc(Cl)ccc1N1CCNCC1` [Example 213, 3-amino-N-(5-chloro-2-piperazin-1-ylphenyl)pyrazine-2-carboxamide]: the IC50 is 1 to 10 µM on Pim1 kinase (setting [2]); > 25 µM at Pim2 kinase; 1 to 10 µM on Pim3 kinase; 1000 to 10000 nM in experiment [1]; > 25 µM at KDR kinase.
With `Nc1nccnc1C(=O)Nc1cc(Cl)ccc1N1CCCC(N)C1` (centres unmarked) [Example 215, 3-amino-N-[2-(3-aminopiperidin-1-yl)-5-chlorophenyl]pyrazine-2-carboxamide], the IC50 at Pim1 kinase (setting [2]) is < 1 µM; at Pim2 kinase it was 1 to 10 µM; at Pim3 kinase it was < 1 µM; in experiment [1] it was 1000 to 10000 nM; at KDR kinase it was > 25 µM.
Take `Cc1ccc(N2CCNCC2)c(NC(=O)c2nccnc2N)c1` [Example 216, 3-amino-N-(5-methyl-2-piperazin-1-ylphenyl)pyrazine-2-carboxamide]: the IC50 at Pim1 kinase (setting [2]) was 1 to 10 µM; at Pim2 kinase, > 25 µM; at Pim3 kinase, 1 to 10 µM; in experiment [1], 1000 to 10000 nM; against KDR kinase, > 25 µM.
In the case of `Cc1ccc(N2CCCC(N)C2)c(NC(=O)c2nccnc2N)c1` (centres unmarked) [Example 218, 3-amino-N-[2-(3-aminopiperidin-1-yl)-5-methylphenyl]pyrazine-2-carboxamide], the IC50 at Pim1 kinase (setting [2]) was < 1 µM; at Pim2 kinase, 10 to 25 µM; at Pim3 kinase it was < 1 µM; in experiment [1], 1000 to 10000 nM; at KDR kinase it was > 25 µM.
Consider `CC(=O)c1ccc(N2CCNCC2)c(NC(=O)c2nccnc2N)c1` [Example 219, N-(5-acetyl-2-piperazin-1-yl-phenyl)-3-aminopyrazine-2-carboxamide], for which the IC50 on Pim1 kinase (setting [2]) is < 1 µM; at Pim2 kinase, 10 to 25 µM; on Pim3 kinase it was < 1 µM; in experiment [1] it was 1000 to 10000 nM; against KDR kinase, > 25 µM.
`COc1ccc(N2CCCC(N)C2)c(NC(=O)c2nccnc2N)c1` (centres unmarked) [Example 223, 3-amino-N-[2-(3-aminopiperidin-1-yl)-5-methoxyphenyl]pyrazine-2-carboxamide]: the IC50 at Pim1 kinase (setting [2]) was < 1 µM; at Pim2 kinase it was 1 to 10 µM; at Pim3 kinase it was < 1 µM; in experiment [1], < 1000 nM; on KDR kinase, > 25 µM.
On to `Nc1nccnc1C(=O)Nc1cc(C(F)(F)F)ccc1N1CCNCC1` [Example 224, 3-amino-N-[2-piperazin-1-yl-5-(trifluoromethyl)phenyl]pyrazine-2-carboxamide], for which the IC50 on Pim1 kinase (setting [2]) was < 1 µM; at Pim2 kinase, > 25 µM; on Pim3 kinase, 1 to 10 µM; in experiment [1], 1000 to 10000 nM; on KDR kinase, > 25 µM.
Take `Nc1nccnc1C(=O)Nc1cc(C(F)(F)F)ccc1N1CCC(N)CC1` [Example 225, 3-amino-N-[2-(4-aminopiperidin-1-yl)-5-(trifluoromethyl)phenyl]-pyrazine-2-carboxamide]: the IC50 at Pim1 kinase (setting [2]) was < 1 µM; at Pim2 kinase, 10 to 25 µM; on Pim3 kinase, < 1 µM; in experiment [1], 1000 to 10000 nM; against KDR kinase, > 25 µM.
`Nc1nccnc1C(=O)Nc1cc(C(F)(F)F)ccc1N1CCCC(N)C1` (centres unmarked) [Example 226, 3-amino-N-[2-(3-aminopiperidin-1-yl)-5-(trifluoromethyl)phenyl]-pyrazine-2-carboxamide]: the IC50 was < 1 µM at Pim1 kinase (setting [2]); 1 to 10 µM on Pim2 kinase; < 1 µM on Pim3 kinase; 1000 to 10000 nM in experiment [1]; > 25 µM at KDR kinase.
On to `Cc1ccc(NC(=O)c2nccnc2N)c(N2CCNCC2)c1` [Example 227, 3-amino-N-(4-methyl-2-piperazin-1-ylphenyl)pyrazine-2-carboxamide], for which the IC50 at Pim1 kinase (setting [2]) was 1 to 10 µM; at Pim2 kinase, > 25 µM; at Pim3 kinase, 1 to 10 µM; in experiment [1], 1000 to 10000 nM; against KDR kinase, > 25 µM.

The values are drawn from patent US20140249135A1, “PIM KINASE INHIBITORS AND METHODS OF THEIR USE” (NOVARTIS AG, priority 2007, published 2014).
